Data: patent publication US20190209548A1, “LINKED DIARYL COMPOUNDS WITH ANTICANCER PROPERTIES AND METHODS OF USING THE SAME” (University of Maryland, College Park, priority 2014, published 2019)

Key:
8 bp AT duplex DNA = assay: UV-visible titration with duplex DNA; assay type: binding; conditions: ligand 10 μM
Description: UV titration studies of DNA with the triazene ligands, DMZ and Triazene-1. The molar extinction coefficients at 260 nm for 22-mer c-kit1, 18-mer VEGF, 23-mer bcl-2 2345, 15-mer TBA and 20-mer 8 bp AT are as follows 226,700 M^−1 cm^−1, 169,800 M^−1 cm^−1, 227,300 M^−1 cm^−1, 143,300 M^−1 cm^1 and 205,500 M^−1 cm^−1, respectively. The concentration of ligands used in this study was 10 μM and the DNA concentrations were 0, 0.25, 1.5, 3, 5, 6, 7, 8, 9, 10, 20, 30, 40, 50, 100, and 15 μM. The buffer contained 250 mM KCl, 50 mM Tris-HCl (at pH 7.5). The following quadruplex DNA were tested: c-kit1, VEGF, bcl-2 2345, and TBA. Duplex DNA (8 bp AT) was also tested. The sample was first heated up to 95° C. for 5 min without the ligand and then cooled down to room temperature in 15 min. The ligand was then added and the mixture was incubated at 4° C. for ˜12 h before recording the data. In case of Triazene-1 and Triazene-2, the sample mixture contained 1% DMSO.

22mer hTel Na^+ = assay: ITC titration with hTel G-quadruplex, Na+ form; assay type: binding, human; conditions: Na+ form of hTel22
Description: Isothermal titration calorimetry. ITC experiments were performed using a VP-ITC calorimeter (GE-Healthcare). A typical ITC experiment involved as many as addition of 28 (10 μL) injections of as high as 1 mM ligand solutions into ˜1.5 mL of a dilute DNA solution (10 μM). Corrected titration curves were achieved by subtracting the blank titration data from the ITC-data for the ligand-DNA titrations. Corrected ITC titrations were fit with a nonlinear regression algorithm again using the CHASM ITC data analysis program developed in our laboratory.
[…] Approximately 2 mL of the oligonucleotide was dialyzed (1000 Mw cutoff membrane) against three changes of buffer solution (1 L, 24 h each) at 4° C. The concentrations of stock DNA solutions were verified using UV-Vis. G-Quadruplex DNAs were annealed by quickly heating to sample to 100° C., holding at 100° C. for ten minutes then slowly cooling to 5° C. over three hours period. Molar extinction coefficient of the DNAs were determined using a nearest-neighbor method for single stranded DNA. The extinction coefficients at 260 nm for the WT 27-mer bcl-2, WT 24-mer c-myc, WT 22-mer human telomere hTel sequences are 267,200 M^−1cm^−1, 248,100 M^−1cm^−1, and 228,500 M^−1cm^−1 respectively. […]

24mer WT c-myc = assay: CD titration with c-myc G-quadruplex; assay type: binding; conditions: K+ Tris buffer
Description: Circular Dichroism (CD). CD titration experiments were performed with an Olis DSM-20 spectropolarimeter (Bogart, Ga.). All measurements were done at 25° C. using a 1 cm quartz cuvette and covering a spectral range of 220-420 nm. […] Stock solutions of the ligand were added in small amount to reach a molar ratio of 1:1, 3:1, 6:1, and 10:1 of ligand per equivalence of DNA.

[1] = system: telomerase activity in MDA-MB-231; assay: Telomerase activity assay (TRAPeze XL) in treated cells; assay type: cell-based, human
Description: Telomerase Activity Assay. MDA-MB-231 cells were routinely cultured in DMEM with 10% FBS and 1% L-glutamine. The evening prior to treatment, actively growing MDA-MB-231 cells were sub-cultured and seeded into T-25 flasks at 2×10^5 cells/flask. […] At 48 and 72 hours after treatment, cells were harvested, washed with PBS, and pelleted. Cell pellets were resuspended in 200 μl CHAPS lysis buffer with 200 units/mL RNase inhibitor, mixed by pipetting, and incubated on ice for 30 minutes. Lysates were then centrifuged at 12,000×g for 20 minutes at 4° C., and supernatants were collected, snap frozen, and stored at −80° C. until analysis. Telomerase activity was assayed using a fluorescence-based TRAPeze XL telomerase detection kit (Intergen, Purchase, N.Y.). According to manufacturer, lysates (1000 cell-equivalents) were mixed with TRAPeze XL reaction mix containing Amplifuor primers and incubated at 30° C. for 30 min to allow the elongation of “TS” primer by telomerase. Amplified telomerase products were quantitated with a fluorescence plate reader. Telomerase activity (in TPG units) was calculated by comparing the ratio of telomerase products to an internal standard for each lysate, as described by the manufacturer. Each unit of TPG (Total Product Generated) corresponds to the number of TS primers extended with at least 3 telomeric repeats by telomerase in the extract in a 30 minute incubation at 30° C.

[2] = system: c-MYC protein in MDA-MB-231 cells; assay: Western Blot of c-MYC protein expression; assay type: cell-based, human; conditions: 5.45 or 27.25 μM, 2, 6 or 24 hours
Description: FIG. 7. Western Blot analysis of c-MYC protein expression in MDA-MB-231 after treated with TMPyP4 and DMZ9. A, MDA-MB-231 cells were treated with DMSO vehicle, DMZ9 (5.45 […] and 27.25 μM), TMPyP4 (22.3 μM and 111.5 μM) for 2 h, 6 h and 24 h. Total protein was extracted and analyzed by Western Blot with 1:1,000 C-MYC (Cell Signaling) and 1:10,000 HRP-linked anti-rabbit IgG (Cell Signaling). * Observed high level of cytotoxicity and low protein levels. B and C, the graphs show the relative density as compared with the DMSO vehicle. Scanned images were analyzed using image J software.
Western Blot Analysis of c-MYC Protein Expression. C-MYC protein levels in MDA-MB-231 cells were evaluated by performing Western Blot. MDA-MB-231 breast cancer cells were treated with 22.3 or 111.5 μM TMPyP4 and 5.45 or 27.25 μM DMZ9 for 2, 6 or 24 hours.

SMILES: N=C(N)c1ccc(NN=Nc2ccccc2)cc1 [DMZ1]
- shift of absorption spectrum upon DNA titration (8 bp AT duplex DNA): no such shift was observed
- ITC interaction heat (22mer hTel Na^+): calorimetrically silent

SMILES: N=C(N)c1ccc(/N=N/Nc2ccc(C(=N)N)cc2)cc1 [DMZ, Diminazene aceturate, reference compound]
- CD signal of G-quadruplex upon complexation (24mer WT c-myc): dramatically decreased
- ITC interaction heat (22mer hTel Na^+): calorimetrically silent

SMILES: N=C(N)c1ccc(/N=N/Nc2ccccc2C#Cc2ccc(F)cc2)cc1 [DMZ13]
- inhibition of telomerase activity ([1]; 12.4 μM, 48 h): about 20%
- inhibition of telomerase activity ([1]; 12.4 μM, 72 h): about 30%

SMILES: N=C(N)c1ccc(N=NNc2cccc(C#Cc3ccc(F)cc3)c2)cc1 [DMZ9]
- inhibition of telomerase activity ([1]; 11 μM, 48 h or 72 h): up to 50%
- c-MYC protein expression [2]: caused a decrease in the c-MYC protein expression
